We go through 2 compounds from patent publication US12384798B2, “ACC inhibitor and use thereof” (NANJING RUIJIE PHARMA CO., LTD., priority 2019, dated 2025).

One experiment addresses ACC2 (Homo sapiens (Human), UniProt O00763). In words: In vitro ACC inhibition assay (ADP-Glo), ACC2. Type of experiment: biochemical. The settings on record: for IC50: 0.5 nM ACC, 10 μM ATP, 5 μM acetyl-CoA, read-out: Enzymatic activity IC50 ACC2. The method, then:
(§1) An exemplary procedure for the in vitro ACC inhibition assay, which can be used to determine the inhibitory action of the compounds of the invention toward either ACC1 or ACC2, is as follows. The ADP-Glo™ kinase assay kit from Promega was used. The ADP-Glo™ kinase assay is a luminescent ADP detection assay to measure enzymatic activity by quantifying the amount of ADP produced during an enzyme reaction. The assay was performed in two steps; first, after the enzyme reaction, an equal volume of ADP-Glo™ reagent was added to terminate the reaction and deplete the remaining ATP. Then, the kinase detection reagent was added to simultaneously convert ADP to ATP and allow the newly synthesized ATP to be measured using a luciferase/luciferin reaction. Luminescence can be correlated to ADP concentrations by using an ATP-to-ADP conversion curve. The detailed procedure was as follows. 4.5 μL of a working solution was added to a 384-well plate. The compound was diluted at 1:3 in succession in DMSO. 0.5 μL of diluted compound solution was added to a 384-well white Optiplate assay plate. The plates were incubated at room temperature for 15 minutes. 5 μL of substrate working solution was added to each well to initiate the reaction. A final ACC reaction solution consisted of: 0.5 nM ACC, 10 μM ATP, 5 μM acetyl-CoA, and 15 mM NaHCO3; and the final concentrations of the compound were measured as follows: 1 μM, 0.333 μM, 0.111 μM, 0.037 μM, 0.0123 μM, 0.00411 μM, 0.00137 μM, 0.000457 μM, 0.000152 μM, and 0.000051 μM. The plates were incubated at room temperature for 30 minutes. 10 μL of ADP-Glo™ reagent was added, and the plates were incubated at room temperature for 40 minutes. 20 μL of kinase detection reagent was added. The plates were incubated at room temperature for 40 minutes, then read on a Perkin Elmer EnVision 2104 plate reader for luminescence in relative light unit (RLU).
(§2) Data for each concentration, as well as the positive and negative controls were averaged, and the standard deviation was calculated. Percent inhibition was calculated by the formula: 100×(average negative control−compound)/(average negative control−average positive control). The IC50 for each compound was calculated by fitting the data with a non-linear regression equation: Y=Bottom+(Top−Bottom)/(1+10^((Log IC50−X)×HillSlope)), where X is the log of compound concentration and Y is the percent inhibition.
Background: ADP-Glo turns the ADP formed in a reaction into a luminescent signal.

Another experiment has as its target ACC1 (Homo sapiens (Human), UniProt Q13085). In words: In vitro ACC inhibition assay (ADP-Glo), ACC1. Type of experiment: biochemical. The settings on record: for IC50: 0.5 nM ACC, 10 μM ATP, 5 μM acetyl-CoA, read-out: Enzymatic activity IC50 ACC1. The method, then:
as §1, §2

The next experiment concerns HepG2 cells. In words: [2-14C]-acetate incorporation assay in HepG2 cells. Type of experiment: cell-based. The settings on record: for IC50: Homo sapiens, HepG2 cells, read-out: IC50 [2-14C]-acetate binding assay. The method, then: [2-^14C]-Acetate Incorporation Assay in HepG2 Cells
DMEM (GIBCO, catalog number: 11965-092) was used as a complete culture medium for HepG2 cells (ATCC, catalog number: HB-8064). 10% fetal bovein serum (FBS, GIBCO, catalog number: 10099-141), penicillin (100 units/mL) and streptomycin (100 μg/mL) (Pen/Strep, GIBCO, catalog number: 15140-122) were added to a DMEM culture medium.
HepG2 cells were cultured in a 37° C. incubator holding 5% carbon dioxide, and passaged every 2-3 days.
The HepG2 cells were spread on a 24-well plate (Corning, catalog number: 3524) at a density of 2×10^5 cells-well, 500 μL per well, and cultured in a 37° C. incubator holding 5% carbon dioxide. On the fourth day of culture, 50 μL of a compound diluted at a gradient of 1:3 was added, with the final concentration of DMSO of 0.5% (v/v); and the cells were cultured for 1 hour in the incubator. 1 μCi [2-^14C]-sodium acetate (Perkin Elmer, catalog number: NEC085H001MC) was added to each well, and culture was conducted for another 5 hours. The culture medium in each well was transferred to a 15 mL centrifugal tube (BD, catalog number: 352096); 0.5 mL of 0.1 M NaOH was added; the cells were blown and washed repeatedly, and then transferred to new centrifugal tubes. Then, 1 mL of ethanol and 0.17 mL of 50% KOH solution were added to each centrifugal tube, which was then treated in a water bath at 90° C. for 1 hour. Next, the mixture was cooled to room temperature; 5 mL of petroleum ether was added to each centrifugal tube, which was turned upside down several times for mixing; the resulting mixture was centrifuged for 5 minutes (Eppendorf, Model: 5702, 1000 rpm); and an upper organic phase was discarded. 1 mL of concentrated hydrochloric acid was added to each centrifugal tube and centrifuged for 5 minutes, and 4 mL of petroleum ether was transferred into a glass tube (18×180 mm). The sample in the glass tube was dried at 64° C., and then dissolved and resuspended by addition of 400 μL of spotting solution (chloroform:n-hexane=1:1). 50 μL of the dissolved sample was drawn by a pipette (BIOHIT, Model: Proline Plus), and spotted onto an Isoplate-96-microwell plate (Perkin Elmer, catalog number: 6005040), and 200 μL of ULTIMA GOLD scintillation solution (Perkin Elmer, catalog number: 77-16061) was added, standing for 5 minutes. Finally, MicroBeta (PerkinElmer, Model: 2450) was used to read scintillation signals.
A 4-parameter logistic model or sigmoidal dose-response model in XLFit 5.3.1.3 (2006-2011 I D Business Solutions Limited) was used to fit IC50: fit=(A+((B−A)/(1+((C/x)^D)))); where the x-axis represented the log of compound concentration, and the y-axis represented count per minute (CPM).

Sequence of ACC2 (O00763 whole entry, species assumed): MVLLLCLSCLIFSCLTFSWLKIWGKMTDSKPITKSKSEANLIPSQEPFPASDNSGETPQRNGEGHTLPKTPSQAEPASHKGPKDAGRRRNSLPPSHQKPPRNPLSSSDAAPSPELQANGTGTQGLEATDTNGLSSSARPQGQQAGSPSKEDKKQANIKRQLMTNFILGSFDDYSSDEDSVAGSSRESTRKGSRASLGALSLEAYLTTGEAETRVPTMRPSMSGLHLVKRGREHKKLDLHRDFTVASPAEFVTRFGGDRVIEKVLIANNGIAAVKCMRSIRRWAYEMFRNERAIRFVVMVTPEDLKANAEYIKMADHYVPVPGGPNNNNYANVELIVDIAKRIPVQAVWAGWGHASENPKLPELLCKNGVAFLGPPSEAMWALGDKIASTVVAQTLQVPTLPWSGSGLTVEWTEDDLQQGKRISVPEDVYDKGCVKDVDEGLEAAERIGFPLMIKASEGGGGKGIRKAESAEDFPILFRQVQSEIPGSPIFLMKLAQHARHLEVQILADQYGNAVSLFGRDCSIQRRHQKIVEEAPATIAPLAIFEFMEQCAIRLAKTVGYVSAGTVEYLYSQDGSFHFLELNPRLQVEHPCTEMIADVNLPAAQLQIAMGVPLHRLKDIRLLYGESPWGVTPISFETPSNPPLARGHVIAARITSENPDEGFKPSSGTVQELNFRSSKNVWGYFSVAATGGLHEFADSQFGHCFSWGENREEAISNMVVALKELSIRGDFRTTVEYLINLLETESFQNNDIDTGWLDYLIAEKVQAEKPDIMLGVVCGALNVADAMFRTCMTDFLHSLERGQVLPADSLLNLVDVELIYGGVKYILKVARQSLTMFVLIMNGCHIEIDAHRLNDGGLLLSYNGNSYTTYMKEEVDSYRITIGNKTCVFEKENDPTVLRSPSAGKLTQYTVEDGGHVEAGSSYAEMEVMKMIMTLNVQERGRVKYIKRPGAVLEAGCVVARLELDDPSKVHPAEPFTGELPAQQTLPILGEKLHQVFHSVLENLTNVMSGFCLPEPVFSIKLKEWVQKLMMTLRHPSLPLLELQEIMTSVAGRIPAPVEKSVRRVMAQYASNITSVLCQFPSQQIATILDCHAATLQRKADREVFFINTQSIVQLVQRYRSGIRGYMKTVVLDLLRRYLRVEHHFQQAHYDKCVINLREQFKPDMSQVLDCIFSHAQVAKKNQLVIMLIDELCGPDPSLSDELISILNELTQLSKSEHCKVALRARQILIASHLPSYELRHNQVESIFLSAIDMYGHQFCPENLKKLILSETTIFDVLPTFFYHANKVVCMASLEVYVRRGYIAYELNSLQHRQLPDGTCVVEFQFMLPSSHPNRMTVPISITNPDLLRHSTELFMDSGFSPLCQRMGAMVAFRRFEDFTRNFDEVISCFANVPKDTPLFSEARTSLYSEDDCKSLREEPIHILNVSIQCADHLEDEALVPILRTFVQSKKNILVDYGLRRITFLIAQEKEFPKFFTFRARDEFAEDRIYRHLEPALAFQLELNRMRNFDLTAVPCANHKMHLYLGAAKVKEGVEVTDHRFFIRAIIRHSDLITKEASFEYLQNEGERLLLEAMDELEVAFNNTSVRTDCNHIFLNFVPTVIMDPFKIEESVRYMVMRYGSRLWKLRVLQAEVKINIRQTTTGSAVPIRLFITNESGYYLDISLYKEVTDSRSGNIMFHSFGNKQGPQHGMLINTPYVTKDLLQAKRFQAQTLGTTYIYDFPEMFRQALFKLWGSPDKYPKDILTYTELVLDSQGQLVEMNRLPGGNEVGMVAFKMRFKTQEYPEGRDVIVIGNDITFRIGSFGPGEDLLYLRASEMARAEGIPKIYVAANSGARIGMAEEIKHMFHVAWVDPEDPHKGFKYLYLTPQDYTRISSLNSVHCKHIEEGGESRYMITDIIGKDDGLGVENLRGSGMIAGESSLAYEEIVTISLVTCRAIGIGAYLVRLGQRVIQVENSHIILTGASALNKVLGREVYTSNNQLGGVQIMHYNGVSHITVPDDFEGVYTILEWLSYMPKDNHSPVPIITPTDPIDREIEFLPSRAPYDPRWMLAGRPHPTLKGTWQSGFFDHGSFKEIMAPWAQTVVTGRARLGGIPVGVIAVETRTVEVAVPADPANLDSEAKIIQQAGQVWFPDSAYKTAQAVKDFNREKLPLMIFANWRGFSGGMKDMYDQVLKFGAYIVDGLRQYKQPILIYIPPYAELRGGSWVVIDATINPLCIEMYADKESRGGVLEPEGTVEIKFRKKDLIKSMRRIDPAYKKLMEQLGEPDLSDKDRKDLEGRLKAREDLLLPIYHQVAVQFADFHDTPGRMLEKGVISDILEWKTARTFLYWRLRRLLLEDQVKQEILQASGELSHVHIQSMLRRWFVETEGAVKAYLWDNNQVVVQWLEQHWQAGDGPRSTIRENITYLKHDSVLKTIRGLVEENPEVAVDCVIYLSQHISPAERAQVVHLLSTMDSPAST

Turning to `COc1ccccc1[C@H](Cn1c(=O)n([C@H]2C[C@@H](CC(=O)O)C2)c(=O)c2c(C)c(-c3ncco3)sc21)OC1CCOCC1` [c-3-2, 2-((1S,3s)-3-(1-((R)-2-(2-methoxyphenyl)-2-((tetrahydro-2H-pyran-4-yl)oxy)ethyl)-5-methyl-6-(oxazol-2-yl)-2,4-dioxo-1,2-dihydrothieno[2,3-d]pyrimidine-3(4H)-yl)cyclobutyl)acetic acid], at ACC2, the “inhibitory properties against ACC2 (in words)” value was “good inhibitory properties” and the IC50 stood at 8 nM. Further, on ACC1, the “inhibitory properties against ACC1 (in words)” value is “good inhibitory properties” and the IC50 stood at 1.12 nM. Further, in the experiment on HepG2 cells, the “inhibitory properties against HepG2 cells (in words)” value is on record as “good inhibitory properties” and the IC50 was determined as 18 nM.

On to `COc1ccccc1[C@H](Cn1c(=O)n([C@H]2C[C@H](CC(=O)O)C2)c(=O)c2c(C)c(-c3ncco3)sc21)OC1CCOCC1` [c-3-1, 2-((1R,3r)-3-(1-((R)-2-(2-methoxyphenyl)-2-((tetrahydro-2H-pyran-4-yl)oxy)ethyl)-5-methyl-6-(oxazol-2-yl)-2,4-dioxo-1,2-dihydrothieno[2,3-d]pyrimidine-3(4H)-yl)cyclobutyl)acetic acid], for which, on ACC2, the “inhibitory properties against ACC2 (in words)” value is “good inhibitory properties” and the IC50 is 9 nM. Also, at ACC1, the “inhibitory properties against ACC1 (in words)” value is given as “good inhibitory properties” and the IC50 was 0.836 nM. In addition, in the experiment on HepG2 cells, the “inhibitory properties against HepG2 cells (in words)” value is “good inhibitory properties” and the IC50 was found to be 13.1 nM.

The IC50 is the concentration that inhibits the measured activity by half.
